Measurements as given in patent publication US6949542B2, “Dihydro-benzo[b][1,4]diazepin-2-one derivatives” (Hoffman-La Roche Inc., priority 2002, dated 2005).

Row | SMILES | melting point
1 | CCc1cc(C)c(-c2cccc(C3=Nc4cc(OCC(F)(F)F)c(C(F)(F)F)cc4NC(=O)C3)c2)cn1 [Example 256, 4-[3-(6-Ethyl-4-methyl-pyridin-3-yl)-phenyl]-7-(2,2,2-trifluoro-ethoxy)-8-trifluoromethyl-1,3-dihydro-benzo[b][1,4]diazepin-2-one] | 145 to 160 °C
2 | Cc1ncccc1-c1cccc(C2=Nc3ccc(C(F)(F)F)cc3NC(=O)C2)c1 [Example 17, 4-[3-(2-Methyl-pyridin-3-yl)-phenyl]-8-trifluoromethyl-1,3-dihydro-benzo[b][1,4]diazepin-2-one] | 219 to 220 °C
3 | O=C1CC(c2cccc(-c3ccncc3)c2)=Nc2cc(C(F)(F)F)c(Cl)cc2N1 [Example 100, 8-Chloro-4-(3-pyridin-4-yl-phenyl)-7-trifluoromethyl-1,3-dihydro-benzo[b][1,4]diazepin-2-one] | 200 °C
4 | O=C1CC(c2cccc(-c3cncnc3)c2)=Nc2cc(C(F)(F)F)c(Cl)cc2N1 [Example 111, 8-Chloro-4-(3-pyrimidin-5-yl-phenyl)-7-trifluoromethyl-1,3-dihydro-benzo[b][1,4]diazepin-2-one] | 217 °C
5 | O=C1CC(c2cccc(-c3ccccn3)c2)=Nc2ccc(C#Cc3ccc(F)cc3)cc2N1 [Example 165, 8-(4-Fluoro-phenylethynyl)-4-(3-pyridin-2-yl-phenyl)-1,3-dihydro-benzo[b][1,4]diazepin-2-one] | 249 °C
6 | CC(C)CN(C)Cc1cc(-c2cccc(C3=Nc4cc(N(C)CC(C)C)c(C(F)(F)F)cc4NC(=O)C3)c2)ccn1 [Example 395, 7-(Isobutyl-methyl-amino)-4-(3-{2-[(isobutyl-methyl-amino)-methyl]-pyridin-4-yl}-phenyl)-8-trifluoromethyl-1,3-dihydro-benzo[b][1,4]diazepin-2-one] | 190 °C
7 | O=C1CC(c2cccc(-c3ccnc(C(F)(F)F)c3)c2)=Nc2cc(OCC(F)(F)F)c(C(F)(F)F)cc2N1 [Example 268, 7-(2,2,2-Trifluoro-ethoxy)-8-trifluoromethyl-4-[3-(2-trifluoromethyl-pyridin-4-yl)-phenyl]-1,3-dihydro-benzo[b][1,4]diazepin-2-one] | 220 °C
8 | COCCNc1nc(C)cc(-c2cccc(C3=Nc4cc(C)c(Cl)cc4NC(=O)C3)c2)n1 [Example 325, 8-Chloro-4-{3-[2-(2-methoxy-ethylamino)-6-methyl-pyrimidin-4-yl]-phenyl}-7-methyl-1,3-dihydro-benzo[b][1,4]diazepin-2-one] | 222 to 224 °C
9 | CCc1cc(-c2cccc(C3=Nc4cc(OCC(F)(F)F)c(C(F)(F)F)cc4NC(=O)C3)c2)ccn1 [Example 158, 4-[3-(2-Ethyl-pyridin-4-yl)-phenyl]-7-(2,2,2-trifluoro-ethoxy)-8-trifluoromethyl-1,3-dihydro-benzo[b][1,4]diazepin-2-one] | 232 °C
10 | Cc1cc(-c2cccc(C3=Nc4cc(N(C)C)c(C(F)(F)F)cc4NC(=O)C3)c2)ncn1 [Example 310, 7-Dimethylamino-4-[3-(6-methyl-pyrimidin-4-yl)-phenyl]-8-trifluoromethyl-1,3-dihydro-benzo[b][1,4]diazepin-2-one] | 232 to 236 °C
11 | Cc1cc(-c2cccc(C3=Nc4cc(C)c(Cl)cc4NC(=O)C3)c2)nc(NCCO)n1 [Example 323, 8-Chloro-4-{3-[2-(2-hydroxy-ethylamino)-6-methyl-pyrimidin-4-yl]-phenyl}-7-methyl-1,3-dihydro-benzo[b][1,4]diazepin-2-one] | 197 to 199 °C
12 | O=C1CC(c2cccc(-c3cnccn3)c2)=Nc2cc(C(F)(F)F)c(Cl)cc2N1 [Example 110, 8-Chloro-4-(3-pyrazin-2-yl-phenyl)-7-trifluoromethyl-1,3-dihydro-benzo[b][1,4]diazepin-2-one] | 214 °C
13 | CCOc1cc2c(cc1C(F)(F)F)NC(=O)CC(c1cccc(-c3ccc(C)nc3)c1)=N2 [Example 238, 7-Ethoxy-4-[3-(6-methyl-pyridin-3-yl)-phenyl]-8-trifluoromethyl-1,3-dihydro-benzo[b][1,4]diazepin-2-one] | 210 °C
14 | Cc1cc(-c2cccc(C3=Nc4ccc(C(F)(F)F)cc4NC(=O)C3)c2)cc(CO)n1 [Example 407, 4-[3-(2-Hydroxymethyl-6-methyl-pyridin-4-yl)-phenyl]-8-trifluoromethyl-1,3-dihydro-benzo[b][1,4]diazepin-2-one] | 228 °C
15 | Cc1cc(-c2cccc(C3=Nc4ccc(-n5cccc5)cc4NC(=O)C3)c2)ccn1 [Example 108, 4-[3-(2-Methyl-pyridin-4-yl)-phenyl]-8-pyrrol-1-yl-1,3-dihydro-benzo[b][1,4]diazepin-2-one] | 206 °C
16 | O=C1CC(c2cccc(-c3ccnc(N4CCOCC4)c3)c2)=Nc2cc(OCC(F)(F)F)c(C(F)(F)F)cc2N1 [Example 386, 4-[3-(2-Morpholin-4-yl-pyridin-4-yl)-phenyl]-7-(2,2,2-trifluoro-ethoxy)-8-trifluoromethyl-1,3-dihydro-benzo[b][1,4]diazepin-2-one] | 189 to 190 °C
17 | COc1ccc(-c2cccc(C3=Nc4cc(OCC(F)(F)F)c(C(F)(F)F)cc4NC(=O)C3)c2)cn1 [Example 170, 4-[3-(6-Methoxy-pyridin-3-yl)-phenyl]-7-(2,2,2-trifluoro-ethoxy)-8-trifluoromethyl-1,3-dihydro-benzo[b][1,4]diazepin-2-one] | 220 to 225 °C
18 | Cc1cc(-c2cccc(C3=Nc4cc(OCC(F)(F)F)c(C(F)(F)F)cc4NC(=O)C3)c2)ccn1 [Example 114, 4-[3-(2-Methyl-pyridin-4-yl)-phenyl]-7-(2,2,2-trifluoro-ethoxy)-8-trifluoromethyl-1,3-dihydro-benzo[b][1,4]diazepin-2-one] | 223 °C

The remaining lines, values ahead:

Row | melting point | SMILES
19 | 190 °C | Cc1cc2c(cc1Cl)NC(=O)CC(c1cccc(-c3ccc(C(C)C)nc3)c1)=N2 [Example 179, 8-Chloro-4-[3-(6-isopropyl-pyridin-3-yl)-phenyl]-7-methyl-1,3-dihydro-benzo[b][1,4]diazepin-2-one]
20 | 226 to 228 °C | CCOc1cc2c(cc1C(F)(F)F)NC(=O)CC(c1cccc(-c3cnc(C)cc3C)c1)=N2 [Example 252, 4-[3-(4,6-Dimethyl-pyridin-3-yl)-phenyl]-7-ethoxy-8-trifluoromethyl-1,3-dihydro-benzo[b][1,4]diazepin-2-one]
21 | 233 to 235 °C | Cc1cc2c(cc1Cl)NC(=O)CC(c1ccnc(-c3ccncc3)c1)=N2 [Example 293, 4-[2,4′]Bipyridinyl-4-yl-8-chloro-7-methyl-1,3-dihydro-benzo[b][1,4]diazepin-2-one]
22 | 191 °C | CCOc1cc2c(cc1C(F)(F)F)NC(=O)CC(c1cccc(-c3cc(C)ncc3CC)c1)=N2 [Example 152, 4-[3-(5-Ethyl-2-methyl-pyridin-4-yl)-phenyl]-7-ethoxy-8-trifluoromethyl-1,3-dihydro-benzo[b][1,4]diazepin-2-one]
23 | 211 °C | Cc1cncc(-c2cccc(C3=Nc4cc(C(F)(F)F)c(C)cc4NC(=O)C3)c2)n1 [Example 130, 8-Methyl-4-[3-(6-methyl-pyrazin-2-yl)-phenyl]-7-trifluoromethyl-1,3-dihydro-benzo[b][1,4]diazepin-2-one]
24 | 208 °C | O=C1CC(c2cccc(-c3cccnc3)c2)=Nc2cc(C(F)(F)F)c(Cl)cc2N1 [Example 113, 8-Chloro-4-(3-pyridin-3-yl-phenyl)-7-trifluoromethyl-1,3-dihydro-benzo[b][1,4]diazepin-2-one]
25 | 124 °C | CC(C)N(C)c1cc2c(cc1C(F)(F)F)NC(=O)CC(c1cccc(-c3ccnc(CO)c3)c1)=N2 [Example 370, 4-[3-(2-Hydroxymethyl-pyridin-4-yl)-phenyl]-7-(isopropyl-methyl-amino)-8-trifluoromethyl-1,3-dihydro-benzo[b][1,4]diazepin-2-one]
26 | 200 °C | Cc1cc(-c2cccc(C3=Nc4cc(OCC(F)(F)F)c(C(F)(F)F)cc4NC(=O)C3)c2)cc(C2CC2)n1 [Example 259, 4-[3-(2-Cyclopropyl-6-methyl-pyridin-4-yl)-phenyl]-7-(2,2,2-trifluoro-ethoxy)-8-trifluoromethyl-1,3-dihydro-benzo[b][1,4]diazepin-2-one]
27 | 241 °C | CC(C)CNc1cc2c(cc1Cl)NC(=O)CC(c1cccc(-c3cncnc3)c1)=N2 [Example 96, 8-Chloro-7-isobutylamino-4-(3-pyrimidin-5-yl-phenyl)-1,3-dihydro-benzo[b][1,4]diazepin-2-one]
28 | 213 °C | CCc1ncccc1-c1cccc(C2=Nc3cc(C)c(C(F)(F)F)cc3NC(=O)C2)c1 [Example 234, 4-[3-(2-Ethyl-pyridin-3-yl)-phenyl]-7-methyl-8-trifluoromethyl-1,3-dihydro-benzo[b][1,4]diazepin-2-one]
29 | 246 °C | Cc1cc2c(cc1C(F)(F)F)NC(=O)CC(c1cccc(-c3cccnc3C)c1)=N2 [Example 260, 7-Methyl-4-[3-(2-methyl-pyridin-3-yl)-phenyl]-8-trifluoromethyl-1,3-dihydro-benzo[b][1,4]diazepin-2-one]
30 | 220 to 221 °C | Cc1ccncc1-c1cccc(C2=Nc3ccc(C(F)(F)F)cc3NC(=O)C2)c1 [Example 226, 4-[3-(4-Methyl-pyridin-3-yl)-phenyl]-8-trifluoromethyl-1,3-dihydro-benzo[b][1,4]diazepin-2-one]
31 | 224 to 225 °C | N#Cc1cc(-c2cccc(C3=Nc4cc(OCC(F)(F)F)c(Cl)cc4NC(=O)C3)c2)ccn1 [Example 203, 4-{3-[7-Chloro-4-oxo-8-(2,2,2-trifluoro-ethoxy)-4,5-dihydro-3H-benzo[b][1,4]diazepin-2-yl]-phenyl}-pyridine-2-carbonitrile]
32 | 192 to 193 °C | CCOc1cc2c(cc1C(F)(F)F)NC(=O)CC(c1cccc(-c3ccnc(C4CCCC4)c3)c1)=N2 [Example 353, 4-[3-(2-Cyclopentyl-pyridin-4-yl)-phenyl]-7-ethoxy-8-trifluoromethyl-1,3-dihydro-benzo[b][1,4]diazepin-2-one]
33 | 182 to 185 °C | CCc1ccc(-c2cccc(C3=Nc4cc(C)c(Cl)cc4NC(=O)C3)c2)cn1 [Example 189, 8-Chloro-4-[3-(6-ethyl-pyridin-3-yl)-phenyl]-7-methyl-1,3-dihydro-benzo[b][1,4]diazepin-2-one]
